According to PubChem BioAssay (NCI):
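48-hour exposure; five concentrations; linearly interpolated endpoints. Here, GI50 denotes the concentration required for 50% inhibition of growth. The concentration for full growth arrest is given as TGI.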

How the values were obtained:
Test in all cases: NCI tumour cell line growth inhibition, 48 h
[1] = test system: MDA-N
[2] = test system: PC-3 prostate
[3] = test system: DMS 114 small cell lung
[4] = test system: KM20L2 colon
[5] = test system: LXFL 529 NSCLC
[6] = test system: XF 498 CNS
[7] = test system: RXF-631 renal

SMILES | TGI [1] | TGI [2] | TGI [3] | TGI [4] | TGI [5] | TGI [6] | GI50 [2] | TGI [7]
Cc1ccc(C)c(C2NC(=O)c3ccccc3N2)c1 (stereo not given) | 0.319 µM | 28.3 µM |  |  |  |  |  | 
O=C(Nc1cccc(O)c1)C(=O)C(C(=O)c1ccc(Cl)c(Cl)c1)C1OC(=O)c2ccccc21 (stereo not given) |  |  | 33.3 µM | 37.3 µM | 24.6 µM | 25.6 µM |  | 
CN1C(=O)N[C@H]2[C@@H]3NC(=O)c4ccc(Br)n4[C@@H]3C[C@]21O |  | 5.42 µM |  |  |  |  | 0.475 µM | 
O=[N+]([O-])C1Cc2ccccc2OC1c1ccccc1 (stereo not given) |  |  |  | > 100 µM | > 100 µM |  |  | > 100 µM
O=C1OC(O)C(Oc2c(Cl)cccc2Cl)=C1Cl (stereo not given) |  |  |  | 32.9 µM | 33.6 µM |  |  | 
CN(C)c1nc(=Nc2cccc(Cl)c2)ss1 |  |  | 25.8 µM | 35.5 µM | 21.7 µM | 32.4 µM |  | 26.8 µM
O=C1CCCCCCCCCCC1CN1CCCCC1 (stereo not given) |  |  | > 100 µM | > 100 µM | > 100 µM | > 100 µM |  | 
CCOC(=N)CC(=O)c1ccccc1 |  |  | > 100 µM | > 100 µM | > 100 µM | > 100 µM |  | 
O=C1C=CC(=O)c2cc(Sc3ccccc3)c(=O)ccc21 | 33.4 µM | 33.2 µM | 38.5 µM | 38 µM | 20.3 µM |  |  | 43.4 µM
Cn1c(=O)c2nc(-c3ccc(Cl)cc3)oc2n(C)c1=O |  |  | > 100 µM | > 100 µM | > 100 µM | > 100 µM |  | 
CCOC(=N)/C(=C1\OC(N)=C(c2ccc(Cl)cc2)C1=O)c1ccc(Cl)cc1 |  |  | 40.6 µM | 37.1 µM | 27.8 µM | 23.6 µM |  | 80.4 µM
Cc1c(C(=O)/C=C/c2ccccc2O)c(=O)n(-c2ccccc2)n1C |  |  | > 100 µM | > 100 µM | 37.5 µM | 46.3 µM |  | 
CC(=O)On1c(-c2ccccc2-c2nc3ccccc3n2OC(C)=O)nc2ccccc21 | > 100 µM | 58.6 µM |  |  |  |  |  | 
CN(C)C(=O)OC(Cn1cncn1)(Cn1cncn1)c1ccc(Cl)cc1Cl |  | > 100 µM |  |  |  |  |  | 
O=C(CNc1ccccc1[N+](=O)[O-])Nn1c(-c2ccccc2)nc2ccccc2c1=O | 57.9 µM | 61.5 µM |  |  |  |  |  | 
OCC(O)c1nc2ccc3[nH]ncc3c2c2c1CCCC2 (stereo not given) |  | > 50 µM |  |  |  |  | 1.43 µM | 
CCCN(CCCC(NC(C)=O)C(=O)NCc1ccccc1)C(=O)NCCCl (stereo not given) |  |  | > 100 µM | > 100 µM | > 100 µM | > 100 µM |  | > 100 µM
C=C1CCC2C(C)(COC(=O)CC)C(OC(=O)CC)CCC2(C)C1C/C=C1/C(=O)OCC1OC(=O)CC (stereo not given) |  | 4.91 µM |  |  |  |  | 2.17 µM | 

SMILES | TGI [1] | TGI [2] | TGI [3] | TGI [4] | TGI [5] | TGI [6] | GI50 [2] | TGI [7]
COc1ccc(-c2c3c(n(C4OC(COC(C)=O)C(OC(C)=O)C(OC(C)=O)C4OC(C)=O)c(=S)c2C#N)CC(C)(C)CC3=O)cc1 (stereo not given) | > 100 µM | > 100 µM |  |  |  |  |  | 
COC(=O)C(Cc1nc2ccccc2[nH]c1=O)C(=O)C(=O)Nc1ccc([N+](=O)[O-])cc1[N+](=O)[O-] (stereo not given) |  |  | 35 µM | 38.3 µM | 25.5 µM | 34.6 µM |  | 73.1 µM
CC(C)(C)C1CCC2c3c([nH]c4ccccc34)C3C(=O)N(c4ccccc4)C(=O)C3C2C1 (stereo not given) |  |  | 20.7 µM |  | 32.3 µM | 3 µM |  | 
O=S1Nc2c(Cl)cc(Cl)c3c(Cl)cc(Cl)c(c23)N1 |  |  | > 100 µM | > 100 µM | > 100 µM |  |  | > 100 µM
CCn1c(-c2cc3ccccc3cc2O)nn(C(=O)c2c(Cl)cccc2Cl)c1=S |  | > 50 µM |  |  |  |  | > 50 µM | 
CC[N+]1(C)CCC(O)(c2ccc(OC)cc2)C(C(=O)c2ccc(OC)cc2)C1 (stereo not given) | 31.9 µM | 31.8 µM | 45.9 µM | 46.2 µM | 9.76 µM | 23.3 µM |  | 34.5 µM
CCc1cc(CCC(=O)Nc2c(C)cccc2C)[nH]n1 |  |  |  | > 100 µM | > 100 µM | > 100 µM |  | > 100 µM
Cc1cc(Cl)ccc1NC(=O)C(=O)C(C(=O)c1ccc2ccccc2c1)C1OC(=O)c2ccccc21 (stereo not given) |  |  | 23.7 µM | 61.7 µM | 19 µM |  |  | 31.2 µM
O=Cc1cccc2c1Oc1c(cccc1C(=O)O)S2 | > 100 µM | > 100 µM |  |  |  |  |  | 
COc1ccc(C2SCC(=O)N2NC(=O)c2ccc(NC(C)=O)cc2)cc1 (stereo not given) | > 100 µM |  |  |  |  |  |  | 
O=C(OCc1ncc(-c2ccc(C(F)(F)F)cc2)c(NC2CCCCCC2)n1)c1c(F)c(F)c(F)c(F)c1F |  | 26.7 µM |  |  |  |  | 12 µM | 
COc1cccc(/C=C/C(=O)c2ccc(Cl)cc2Cl)c1 |  | 20.9 µM |  |  |  |  | 8.92 µM | 
COc1cccc(C2c3cc4c(cc3OC(N3CCCC3)C2C)OCO4)c1O (stereo not given) | 4.38 µM | 73.5 µM |  |  |  |  |  | 
CN1C(=O)C(=O)c2cc3c(c4c2c1cc1ccccc14)OCO3 |  |  | > 100 µM | > 100 µM | > 100 µM | > 100 µM |  | 
CSc1n[n+]2c(s1)SCCC2 |  |  | > 100 µM |  | > 100 µM | > 100 µM |  | > 100 µM
O=C1C(Cl)C(c2ccccc2O)N1n1cnc2ccccc2c1=O (stereo not given) |  |  | 81.4 µM | > 100 µM | > 100 µM | 17.9 µM |  | 
CCN(CC)CCCNC(=O)c1c2c(n3ccccc13)C(=O)c1ncccc1C2=O |  | 6.65 µM |  |  |  |  | 0.616 µM | 
Cc1cccc(C)c1NC(=O)Nc1ccc(S(N)(=O)=O)cc1 | > 100 µM | > 100 µM |  |  |  |  |  | 
